Experimental data from patent US4820694A, “Modifications of 3-O-demethylmycinose in macrocin and lactenocin” (priority 1986, dated 1989).
≈ marks a conversion by molar mass, not a printed value. Where two headings read alike, the source gives them in different places.

Assays:
[1] = tested on: Escherichia coli EC14; assay: standard agar-dilution MIC assay; assay type: cell-based
Procedure: (§1) The MIC's in Table III were determined by standard agar-dilution assays. The MIC's in Table IV were obtained using conventional brothdilution microtiter tests.

[2] = tested on: Haemophilus influenzae 76; assay: standard agar-dilution MIC assay; assay type: cell-based; details: Haemophilus influenzae, 76
Procedure: as §1

[3] = tested on: Haemophilus influenzae C.L.; assay: standard agar-dilution MIC assay; assay type: cell-based; details: Haemophilus influenzae
Procedure: as §1

[4] = tested on: Klebsiella pneumoniae X68; assay: standard agar-dilution MIC assay; assay type: cell-based; details: Klebsiella pneumoniae, X68
Procedure: as §1

[5] = tested on: Pseudomonas aeruginosa X239; assay: standard agar-dilution MIC assay; assay type: cell-based; details: Pseudomonas aeruginosa, X239
Procedure: as §1

[6] = tested on: Staphylococcus aureus V41; assay: standard agar-dilution MIC assay; assay type: cell-based; details: Staphylococcus aureus, V41
Procedure: as §1

[7] = tested on: Staphylococcus aureus X1.1; assay: standard agar-dilution MIC assay; assay type: cell-based; details: Staphylococcus aureus, X1.1
Procedure: as §1

[8] = tested on: Staphylococcus aureus X400; assay: standard agar-dilution MIC assay; assay type: cell-based; details: Staphylococcus aureus, X400
Procedure: as §1

[9] = tested on: Staphylococcus epidermidis EPI1; assay: standard agar-dilution MIC assay; assay type: cell-based; details: Staphylococcus epidermidis, EPI1
Procedure: as §1

[10] = tested on: Streptococcus Group D 9960; assay: standard agar-dilution MIC assay; assay type: cell-based; details: GROUPD9960, read-out: MIC
Procedure: as §1

[11] = tested on: Streptococcus Group D X66; assay: standard agar-dilution MIC assay; assay type: cell-based; details: read-out: MIC
Procedure: as §1

[12] = tested on: Streptococcus pyogenes C203; assay: standard agar-dilution MIC assay; assay type: cell-based; details: Streptococcus pyogenes, C203
Procedure: as §1

[13] = tested on: Staphylococcus aureus S13E; assay: microbe, parasite or virus in culture; assay type: cell-based; details: Staphylococcus aureus, S13E
Procedure: as §1

[14] = tested on: Streptococcus pneumoniae Park I; assay: microbe, parasite or virus in culture; assay type: cell-based; details: Streptococcus pneumoniae
Procedure: as §1

[15] = tested on: Bordetella bronchiseptica; assay: broth-dilution microtiter MIC test; assay type: cell-based; details: Bordetella bronchiseptica
Procedure: as §1

[16] = tested on: Mycoplasma gallisepticum 15E; assay: broth-dilution microtiter MIC test; assay type: cell-based; details: Mycoplasmoides gallisepticum, 15E
Procedure: as §1

[17] = tested on: Mycoplasma gallisepticum 29C; assay: broth-dilution microtiter MIC test; assay type: cell-based; details: Mycoplasmoides gallisepticum, 29C
Procedure: as §1

[18] = tested on: Mycoplasma gallisepticum 36H; assay: broth-dilution microtiter MIC test; assay type: cell-based; details: Mycoplasmoides gallisepticum, 36H
Procedure: as §1

[19] = tested on: Mycoplasma hyorhinis 29E; assay: broth-dilution microtiter MIC test; assay type: cell-based; details: Mycoplasma, 29E
Procedure: as §1

[20] = tested on: Mycoplasma synoviae 40A; assay: broth-dilution microtiter MIC test; assay type: cell-based; details: Mycoplasmopsis synoviae, 40A
Procedure: as §1

[21] = tested on: Pasteurella hemolytica 22C; assay: broth-dilution microtiter MIC test; assay type: cell-based; details: Pasteurella, 22C
Procedure: as §1

[22] = tested on: Pasteurella hemolytica 23C; assay: broth-dilution microtiter MIC test; assay type: cell-based; details: Pasteurella, 23C
Procedure: as §1

[23] = tested on: Pasteurella hemolytica 41D; assay: broth-dilution microtiter MIC test; assay type: cell-based; details: Pasteurella, 41D
Procedure: as §1

[24] = tested on: Pasteurella multocida 17E; assay: broth-dilution microtiter MIC test; assay type: cell-based; details: Pasteurella multocida, 17E
Procedure: as §1

[25] = tested on: Pasteurella multocida 22A; assay: broth-dilution microtiter MIC test; assay type: cell-based; details: Pasteurella multocida, 22A
Procedure: as §1

[26] = tested on: Pasteurella multocida 40G; assay: broth-dilution microtiter MIC test; assay type: cell-based; details: Pasteurella multocida, 40G
Procedure: as §1

[27] = tested on: Pasteurella multocida 60A; assay: broth-dilution microtiter MIC test; assay type: cell-based; details: Pasteurella multocida, 60A
Procedure: as §1

[28] = tested on: Pasteurella multocida 68C; assay: broth-dilution microtiter MIC test; assay type: cell-based; details: Pasteurella multocida, 68C
Procedure: as §1

[29] = tested on: Staphylococcus aureus 19C; assay: broth-dilution microtiter MIC test; assay type: cell-based; details: Staphylococcus aureus, 19C
Procedure: as §1

[30] = tested on: Streptococcus sp. 19F; assay: broth-dilution microtiter MIC test; assay type: cell-based; details: Streptococcus, SP.19F
Procedure: as §1

[31] = tested on: Streptococcus pyogenes C203; assay: protection of mice experimentally infected with S. pyogenes C203; assay type: in vivo
Procedure: The formula 1 compounds have shown in vivo antimicrobial activity against experimentally-induced infections in laboratory animals. When two doses of test compound were administered to mice experimentally infected with S. pyrogenes C203, the activity observed was measured as an ED50 value [effective dose in mg/kg to protect 50% of the test animals: see Warren Wick, et al., J. Bacteriol. 81, 233-235 (1961)].
^a mg/kg × 2; doses given 1 and 4 hours postinfection

CCC1OC(=O)CC(O)C(C)C(OC2OC(C)C(OC3CC(C)(O)C(O)C(C)O3)C(N(C)C)C2O)C(CC=O)CC(C)C(=O)C=CC(C)=CC1COC1OC(C)C(OC(=O)Cc2ccccc2)C(O)C1OC (centres unmarked) [Compound 10, 4'"-O-Phenylacetyl-macrocin]
MIC [1]: > 128 mg/L | MIC [2]: 16 mg/L (≈ 15.7 µM) | MIC [3]: 32 mg/L (≈ 31.4 µM) | MIC [4]: > 128 mg/L | MIC [5]: > 128 mg/L | MIC [6]: 1 mg/L (≈ 0.98 µM) | MIC [7]: 1 mg/L (≈ 0.98 µM) | MIC [8]: 2 mg/L (≈ 1.96 µM) | MIC [9]: 1 mg/L (≈ 0.98 µM) | MIC [10]: 1 mg/L (≈ 0.98 µM) | MIC [11]: 1 mg/L (≈ 0.98 µM) | MIC [12]: 0.5 mg/L (≈ 0.49 µM) | MIC [13]: 1 mg/L (≈ 0.98 µM) | MIC [14]: 0.25 mg/L (≈ 0.245 µM) | MIC [15]: > 50 mg/L | MIC [16]: 12.5 mg/L (≈ 12.3 µM) | MIC [17]: 0.39 mg/L (≈ 0.382 µM) | MIC [18]: 12.5 mg/L (≈ 12.3 µM) | MIC [19]: 3.12 mg/L (≈ 3.06 µM) | MIC [20]: 1.56 mg/L (≈ 1.53 µM) | MIC [21]: > 50 mg/L | MIC [22]: > 50 mg/L | MIC [23]: > 50 mg/L | MIC [24]: 50 mg/L (≈ 49 µM) | MIC [25]: > 50 mg/L | MIC [26]: > 50 mg/L | MIC [27]: > 50 mg/L | MIC [28]: 50 mg/L (≈ 49 µM) | MIC [29]: 1.56 mg/L (≈ 1.53 µM) | MIC [30]: 0.78 mg/L (≈ 0.765 µM) | ED50 ([31]; C203, po): 38.8 mg/kg | ED50 ([31]; C203, sc): 1.9 mg/kg

CCC1OC(=O)CC(O)C(C)C(OC2OC(C)C(O)C(N(C)C)C2OC(C)=O)C(CC=O)CC(C)C(=O)C=CC(C)=CC1COC1OC(C)C(OC(=O)CC(C)C)C(O)C1OC (centres unmarked) [Compound 25, 2'-O-Acetyl-4"-O-isovaleryl-lactenocin]
MIC ([1]; agar-dilution, read-out: MIC): > 128 mg/L | MIC [2]: 16 mg/L (≈ 18.1 µM) | MIC [3]: 32 mg/L (≈ 36.2 µM) | MIC ([4]; agar-dilution, read-out: MIC): > 128 mg/L | MIC ([5]; agar-dilution, read-out: MIC): > 128 mg/L | MIC [6]: 2 mg/L (≈ 2.26 µM) | MIC [7]: 2 mg/L (≈ 2.26 µM) | MIC [8]: 2 mg/L (≈ 2.26 µM) | MIC [9]: 2 mg/L (≈ 2.26 µM) | MIC [10]: 2 mg/L (≈ 2.26 µM) | MIC [11]: 2 mg/L (≈ 2.26 µM) | MIC [12]: 2 mg/L (≈ 2.26 µM) | MIC [13]: 2 mg/L (≈ 2.26 µM) | MIC [14]: 0.5 mg/L (≈ 0.566 µM) | MIC ([15]; broth-dilution microtiter, read-out: MIC): > 50 mg/L | MIC [16]: 50 mg/L (≈ 56.6 µM) | MIC [17]: 0.39 mg/L (≈ 0.441 µM) | MIC [18]: 25 mg/L (≈ 28.3 µM) | MIC [19]: 1.56 mg/L (≈ 1.76 µM) | MIC [20]: 3.12 mg/L (≈ 3.53 µM) | MIC [21]: 50 mg/L (≈ 56.6 µM) | MIC [22]: 25 mg/L (≈ 28.3 µM) | MIC [23]: 25 mg/L (≈ 28.3 µM) | MIC [24]: 25 mg/L (≈ 28.3 µM) | MIC [25]: 25 mg/L (≈ 28.3 µM) | MIC [26]: 25 mg/L (≈ 28.3 µM) | MIC [27]: 25 mg/L (≈ 28.3 µM) | MIC [28]: 25 mg/L (≈ 28.3 µM) | MIC [29]: 6.25 mg/L (≈ 7.07 µM) | MIC [30]: 1.56 mg/L (≈ 1.76 µM)
